pIC50: −log10 of the molar value.

The target of the experiment is T1, liver carnitine palmitoyl transferase 1 (L-CPT1) (Homo sapiens, UniProt P50416).
T1 construct: made in house; host or cells: Pichia pastoris strain X-33 (crude cell-free extract)
T1 sequence (P50416 1-773): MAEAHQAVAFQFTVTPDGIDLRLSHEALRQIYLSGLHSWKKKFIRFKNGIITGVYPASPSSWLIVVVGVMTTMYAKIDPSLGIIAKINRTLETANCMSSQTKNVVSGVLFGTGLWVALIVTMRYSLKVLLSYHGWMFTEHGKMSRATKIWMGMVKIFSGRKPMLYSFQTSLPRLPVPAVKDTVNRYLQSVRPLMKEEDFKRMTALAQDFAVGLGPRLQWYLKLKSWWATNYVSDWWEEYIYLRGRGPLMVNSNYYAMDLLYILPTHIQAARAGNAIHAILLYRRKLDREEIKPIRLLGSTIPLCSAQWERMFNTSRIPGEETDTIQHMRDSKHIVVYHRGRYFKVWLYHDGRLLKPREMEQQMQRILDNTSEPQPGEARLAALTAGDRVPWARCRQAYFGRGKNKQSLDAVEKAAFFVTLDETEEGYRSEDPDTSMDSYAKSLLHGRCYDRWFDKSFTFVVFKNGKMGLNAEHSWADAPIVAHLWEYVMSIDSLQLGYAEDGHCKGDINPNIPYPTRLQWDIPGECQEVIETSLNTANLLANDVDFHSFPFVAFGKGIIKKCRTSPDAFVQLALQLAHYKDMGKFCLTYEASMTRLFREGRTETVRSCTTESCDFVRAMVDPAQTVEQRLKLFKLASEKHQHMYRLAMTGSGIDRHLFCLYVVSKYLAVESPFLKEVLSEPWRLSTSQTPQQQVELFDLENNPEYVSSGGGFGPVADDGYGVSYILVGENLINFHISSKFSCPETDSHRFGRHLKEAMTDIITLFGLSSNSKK
Briefly: L-CPT1 inhibition, spectrophotometric DTNB (Ellman's reagent) CPT activity assay. It counts as biochemical. The protocol:
The following tests were carried out in order to determine the activity of the compounds of the present invention. Background information on the performed assays can be found in: Jackson et al., 1999, Biochem. J. 341, 483-489 and Jackson et al., 2000, J. Biol. Chem. 275, 19560-19566.
Human liver and muscle CPT1 cDNAs and rat CPT2 cDNA were subcloned in pGAPZB or pGAPZA, respectively. These plasmids were used to transform P. pastoris strain X-33 via electroporation after the preparation of electrocompetent cells. High copy number clones were selected where necessary using 0.5 or 1 mg/ml Zeocin. Cultures for activity measurements were induced for 16 h in YPD medium (1% yeast extract, 2% peptone, 2% glucose). Crude cell extracts were prepared by disrupting the cells with glass beads or French Press, depending on fermenter sizes. After centrifugation, the cell-free extracts were resuspended in cell breaking buffer (50 mM Tris, pH7.4, 100 mM KCl, 1 mM EDTA) in the presence of a protease inhibitor cocktail, before aliquoting and freezing at −20° C.
CPT activity was measured using a spectrophotometric assay using 5,5′-dithio-bis-(2-nitrobenzoic acid) (DTNB) also called Ellman's reagent. The HS-CoA released on the formation of acylcarnitine from carnitine (500 μM) and palmitoyl-CoA (80 μM) reduced DTNB (300 μM) forming 5-mercapto-(2-nitrobenzoic acid) which absorbed at 410 nm with a molar coefficient extinction of 13600 M^−1.cm^−1. The assay buffer contained 120 mM KCl, 25 mM Tris, pH 7.4, 1 mM EDTA. This assay was used for the identification of selective inhibitors of the liver CPT1 isoform versus the muscle CPT1 and CPT2 isoforms.
(In general: Ellman's reagent forms a yellow product with free thiols.)
Regarding `COc1ccc(-c2noc([C@H]3CCCCN3C(=O)COc3ccccc3)n2)cc1` [Example 1, (R)-1-{2-[3-(4-Methoxy-phenyl)-[1,2,4]oxadiazol-5-yl]-piperidin-1-yl}-2-phenoxy-ethanone], the negative-log IC50 (pIC50) (commonly −log10 of the IC50, conventionally taken in molar units) is 7.18. The same measure for `COc1ccc(-c2n[nH]c([C@H]3CN(C)CCN3C(=O)COc3ccccc3)n2)cc1` [Example 172, (R)-1-{2-[5-(4-Methoxy-phenyl)-2H-[1,2,4]triazol-3-yl]-4-methyl-piperazin-1-yl}-2-phenoxy-ethanone]: 6.62; for `O=C(COc1ccccc1)N1CCCC[C@@H]1c1nc(-c2ccc(F)cc2)no1` [Example 10, (R)-1-{2-[3-(4-Fluoro-phenyl)-[1,2,4]oxadiazol-5-yl]-piperidin-1-yl}-2-phenoxy-ethanone]: 6.59.

The values are drawn from patent US7645776B2, “Heteroaryl substituted piperidine derivatives which are L-CPT1 inhibitors” (Hoffmann-La Roche Inc., priority 2005, dated 2010).
